Reference: patent US10301317B2, “Inhibitors of ERK and methods of use” (Kura Oncology, Inc., priority 2013, dated 2019)

System: phospho-p90 RSK (RSK1 Thr359/Ser363) in A375 (Braf V600E) cells
Assay: Phospho-p90 RSK ELISA using A375 (Braf V600E) cells
Format: cell-based
Conditions: Homo sapiens, A-375, 2 hours compound treatment, read-out: Cellular Phospho-p90RSK IC50
Experimental: In preparation for the assay, an ELISA plate with the pre-coated goat anti-mouse antibody (Thermo Scientific) was treated with a mouse anti-human RSK1 antibody (monoclonal, Invitrogen) at 1:800 dilution (150 ng/well) in PBS, and the plate was placed on a plate shaker at 4° C. overnight. […] After two […] of the compound treatment, the supernatant was removed from the cell plate, and cells were lysed in 100 μl per well of cell lysis buffer (Cell Signaling Technologies) containing phosphatase and protease inhibitors (Cell Signaling Technologies) on a plate shaker at 4° C. for 20 minutes. The ELISA plate was washed four times with ELISA wash buffer (Thermo Scientific) prior to addition of 100 μL cell lysate. The lysate was incubated on the ELISA plate with gentle shaking at room temperature for 2 hours. The contents of the wells were removed, and the ELISA plate was washed four times with wash buffer, and incubated with 100 μL per well of anti-phospho-RSK1 (Thr359/Ser363) rabbit monoclonal antibody (Millipore) at dilution of 1:1000 in StartingBlock buffer (Thermo Scientific) on a plate shaker at room temperature for 1 hour. The contents of the wells were removed, the ELISA plate was washed four times with wash buffer, and was incubated with 100 μL per well of goat anti-rabbit HRP (Thermo Scientific) at dilution of 1:3000 in StartingBlock buffer (Thermo Scientific) on a plate shaker at room temperature for 1 hour. The contents of the wells were removed, the ELISA plate was washed four times with wash buffer, and then incubated with 100 μL per well of TMB substrate solution (Thermo Scientific) on a plate shaker at room temperature for 20 minutes. Finally, 100 μL of TMB stop solution (Thermo Scientific) was added to each well and the absorbance is measured at 450 nm on a Tecan plate reader.

SMILES	IC50 [nM]
Cc1cc(-c2n[nH]c3cc4[nH]c(=O)c(C(CO)c5ccccc5)cc4cc23)ccn1 (stereo not drawn) [Example 328]	≤ 250
Cc1cc(-c2n[nH]c3cc4c(cc23)CN(CC2CCCC2)C(=O)N4)ccn1 [Example 212]	≤ 250
O=C1Nc2cc3[nH]nc(-c4ccc(N5CCOCC5)nc4)c3cc2CN1Cc1cccc(Cl)c1 [Example 231]	≤ 250
[2H]C([2H])(c1ccccc1)N1CCC[C@@H](N2Cc3cc4c(-c5ccnc(C)c5)n[nH]c4cc3NC2=O)C1 [Example 148]	≤ 250
CC(c1ccccc1)c1cc2cc3c(-c4ccncc4)n[nH]c3cc2[nH]c1=O (stereo not drawn) [Example 326]	≤ 250
Cc1cc(-c2n[nH]c3cc4c(cc23)CN([C@@H]2CN(CC(F)(F)F)C[C@H]2c2ccccc2F)C(=O)N4)ccn1 (racemic) [Example 311]	≤ 250
Cc1cc(-c2n[nH]c3cc4c(cc23)CN([C@@H]2CCN(CC(F)(F)F)C2)C(=O)N4)cc(C)n1 [Example 237]	≤ 250
O=C1Nc2cc3[nH]nc(-c4cn[nH]c4)c3cc2CN1Cc1ccc(F)c(Cl)c1 [Example 48]	250 to 1000
Cc1cc(-c2n[nH]c3cc4c(cc23)CN([C@@H]2CCN(c3cccc(Cl)c3)C2)C(=O)N4)ccn1 [Example 249]	≤ 250
Cc1cc(-c2n[nH]c3cc4c(cc23)CN(C(C)C2CCOCC2)C(=O)N4)ccn1 (stereo not drawn) [Example 262]	≤ 250
O=C1Nc2cc3[nH]nc(-c4cn[nH]c4)c3cc2CN1Cc1cccc(Cl)c1 [Example 60]	> 1000
CC(c1ccccc1)c1cc2cc3c(N4CCOCC4)n[nH]c3cc2[nH]c1=O (stereo not drawn) [Example 345]	≤ 250
Cn1nccc1-c1n[nH]c2cc3c(cc12)CN([C@@H]1CCCN(Cc2ccccc2)C1)C(=O)N3 [Example 261]	≤ 250
Cc1ncc(-c2n[nH]c3cc4c(cc23)CN(Cc2cccc(Cl)c2)C(=O)N4)cn1 [Example 90]	≤ 250
Cc1cc(-c2n[nH]c3cc4c(cc23)CN([C@@H]2CN(Cc3ccccc3)CC(F)(F)C2)C(=O)N4)ccn1 [Example 263]	> 1000
Cc1cc(-c2n[nH]c3cc4c(cc23)CN([C@@H]2CCCN(CC3(C)CC3)C2)C(=O)N4)ccn1 [Example 182]	250 to 1000
Cc1cc(-c2n[nH]c3cc4c(cc23)CN(CCc2ccc(F)cc2)CC(=O)N4)ccn1 [Example 67]	> 1000
COCCOCCN1Cc2cc3c(-c4ccnc(C)c4)n[nH]c3cc2NC1=O [Example 45]	250 to 1000
Cc1cc(-c2n[nH]c3cc4c(cc23)CN([C@@H]2CCCN(CC(=O)C(C)C)C2)C(=O)N4)ccn1 [Example 209]	250 to 1000
CC(c1ccccc1)c1cc2cc3c(-c4ccc(=O)n(C)c4)n[nH]c3cc2[nH]c1=O (stereo not drawn) [Example 347]	≤ 250
O=C1Nc2cc3[nH]nc(-c4ccnnc4)c3cc2CN1[C@@H]1CCCN(Cc2ccccc2F)C1 [Example 121]	≤ 250

SMILES	IC50 [nM]
Cc1cc(-c2n[nH]c3cc4c(cc23)CN([C@@H]2CCCN(CCC3CC3)C2)C(=O)N4)ccn1 [Example 155]	250 to 1000
Cc1ccc(CN2CCC[C@@H](N3Cc4cc5c(-c6ccnc(C)c6)n[nH]c5cc4NC3=O)C2)cn1 [Example 131]	> 1000
Cc1cc(-c2n[nH]c3cc4c(cc23)CN(CC2CCOCC2)C(=O)N4)cc(C)n1 [Example 250]	≤ 250
Cc1cc(-c2n[nH]c3cc4c(cc23)CN(CCN2CCOCC2)C(=O)N4)ccn1 [Example 51]	> 1000
C[C@H](c1ccc(Cl)cc1)N1Cc2cc3c(-c4ccnnc4)n[nH]c3cc2NC1=O [Example 115]	250 to 1000
COc1ncc(-c2n[nH]c3cc4c(cc23)CN([C@H](CO)c2cccc(Cl)c2)C(=O)N4)cn1 [Example 118]	≤ 250
COc1ncc(-c2n[nH]c3cc4c(cc23)CN(Cc2ccc(F)cc2)C(=O)N4)cn1 [Example 72]	≤ 250
Cc1cc(-c2n[nH]c3cc4c(cc23)CN([C@H]2CCCN(CC(F)(F)F)C2)C(=O)N4)ccn1 [Example 309]	250 to 1000
Cc1cc(-c2n[nH]c3cc4c(cc23)CN([C@@H]2CN(CC(F)(F)F)C[C@H]2C(C)C)C(=O)N4)ccn1 (mixture of isomers) [Example 322]	250 to 1000
Cc1cc(-c2n[nH]c3cc4c(cc23)CN([C@@H]2CCCN(Cc3sc(C)nc3C)C2)C(=O)N4)ccn1 [Example 195]	250 to 1000
Cc1cc(-c2n[nH]c3cc4c(cc23)CN([C@@H]2CCCN(CCc3cccc(Cl)c3)C2)C(=O)N4)ccn1 [Example 164]	> 1000
O=C1Nc2cc3[nH]nc(-c4cccnc4)c3cc2CN1Cc1cccc(Cl)c1 [Example 57]	≤ 250
Cc1cc(-c2n[nH]c3cc4c(cc23)CN(C2CCN(CCc3ccccc3)CC2)C(=O)N4)ccn1 [Example 157]	> 1000
Cc1cc(-c2n[nH]c3cc4c(cc23)CN([C@H](C)CO)C(=O)N4)ccn1 [Example 54]	> 1000
Cn1cc(-c2n[nH]c3cc4c(cc23)CN([C@@H]2CCN(CC(F)(F)F)C2)C(=O)N4)cn1 [Example 259]	≤ 250
Cc1cc(-c2n[nH]c3cc4c(cc23)CN([C@@H]2CNC[C@H]2c2ccccc2)C(=O)N4)ccn1 (racemic) [Example 223]	250 to 1000
Cc1cc(-c2n[nH]c3cc4c(cc23)CN(C2CCN(Cc3ccccc3)CC2)C(=O)N4)ccn1 [Example 70]	250 to 1000
Cc1cc(-c2n[nH]c3cc4[nH]c(=O)c([C@@H](C)c5ccc(F)cc5)cc4cc23)ccn1 [Example 287]	250 to 1000
Cc1cc(-c2n[nH]c3cc4c(cc23)CN(CCO)C(=O)N4)ccn1 [Example 43]	> 1000
O=C1Nc2cc3[nH]nc(-c4ccnnc4)c3cc2CN1[C@H](CO)c1cccc(Cl)c1 [Example 117]	> 1000
CC(C)c1cc(-c2n[nH]c3cc4c(cc23)CN(Cc2cccc(Cl)c2)C(=O)N4)ccn1 [Example 230]	250 to 1000

SMILES	IC50 [nM]
COc1ncc(-c2n[nH]c3cc4c(cc23)CN([C@@H]2CN(C)C[C@H]2c2ccccc2)C(=O)N4)cn1 (mixture of isomers) [Example 355]	250 to 1000
Cc1cc(-c2n[nH]c3cc4c(cc23)CN([C@@H]2CCCN(CC(O)C(C)(C)C)C2)C(=O)N4)ccn1 (stereo partly drawn) [Example 236]	> 1000
Cc1cc(-c2n[nH]c3cc4c(cc23)CN([C@@H]2CCCN(Cc3ccc(F)s3)C2)C(=O)N4)ccn1 [Example 290]	≤ 250
Nc1ncc(-c2n[nH]c3cc4c(cc23)CN([C@@H]2CN(CC(F)(F)F)C[C@H]2c2ccccc2)C(=O)N4)cn1 [Example 351]	250 to 1000
COc1cc(-c2n[nH]c3cc4c(cc23)CN(Cc2ccc(F)c(Cl)c2)C(=O)N4)ccn1 [Example 38]	250 to 1000
O=C1Nc2cc3[nH]nc(-c4ccnnc4)c3cc2CN1Cc1ccc(F)cc1 [Example 97]	250 to 1000
Cc1cc(-c2n[nH]c3cc4c(cc23)CN([C@H]2CN(C)C[C@@H]2c2ccccc2)C(=O)N4)cc(C)n1 [Example 307]	250 to 1000
COc1cc(-c2n[nH]c3cc4[nH]c(=O)c(C5CCCN(Cc6ccccc6)C5)cc4cc23)ccn1 (stereo not drawn) [Example 370]	≤ 250
Cc1cc(-c2n[nH]c3cc4c(cc23)CN([C@@H]2CCCN(Cc3ccc(Cl)cc3)C2)C(=O)N4)ccn1 [Example 159]	250 to 1000
COc1ccc(-c2n[nH]c3cc4c(cc23)CN(Cc2ccc(F)cc2)C(=O)N4)cn1 [Example 76]	≤ 250
Cc1cc(-c2n[nH]c3cc4c(cc23)CN(Cc2nccs2)C(=O)N4)ccn1 [Example 56]	250 to 1000
Cc1cc(-c2n[nH]c3cc4c(cc23)CN(CCNCc2ccc(F)c(Cl)c2)C(=O)N4)ccn1 [Example 173]	> 1000
Cc1ccc(-c2n[nH]c3cc4c(cc23)CN([C@@H]2CCN(CC(F)(F)F)C2)C(=O)N4)cn1 [Example 274]	≤ 250
Cc1cc(-c2n[nH]c3cc4c(cc23)CN(CCC2CC2)C(=O)N4)ccn1 [Example 283]	> 1000
Cc1cc(-c2n[nH]c3cc4c(cc23)CN([C@@H]2CCCN(CC3CCC3)C2)C(=O)N4)ccn1 [Example 137]	250 to 1000
Cc1cc(-c2n[nH]c3cc4c(cc23)CN(Cc2ccccc2C(F)(F)F)C(=O)N4)ccn1 [Example 218]	250 to 1000
Cc1cc(-c2n[nH]c3cc4c(cc23)CN([C@@H]2CN(CC(F)(F)F)C[C@H]2c2ccc(F)cc2)C(=O)N4)ccn1 (racemic) [Example 300]	≤ 250
Cc1cc(-c2n[nH]c3cc4c(cc23)CN([C@@H]2CCCN(CCC(C)C)C2)C(=O)N4)ccn1 [Example 169]	250 to 1000
Cc1cc(-c2n[nH]c3cc4c(cc23)CN([C@@H]2CCCN(Cc3ccccn3)C2)C(=O)N4)ccn1 [Example 171]	> 1000
Cc1cc(-c2n[nH]c3cc4c(cc23)CN([C@@H]2CCCN(C3CCC3)C2)C(=O)N4)ccn1 [Example 210]	> 1000

System: A375 cells
Assay: Tumor cell line proliferation assay (CellTiter Glo), A375
Format: cell-based
Conditions: Homo sapiens, A-375, 96 h, read-out: A375 (V599E) Cell Proliferation IC50

SMILES	IC50 [nM]
Cc1cc(-c2n[nH]c3cc4[nH]c(=O)c(C(CO)c5ccccc5)cc4cc23)ccn1 (stereo not drawn) [Example 328]	250 to 1000
Cc1cc(-c2n[nH]c3cc4c(cc23)CN(CC2CCCC2)C(=O)N4)ccn1 [Example 212]	≤ 250
O=C1Nc2cc3[nH]nc(-c4ccc(N5CCOCC5)nc4)c3cc2CN1Cc1cccc(Cl)c1 [Example 231]	250 to 1000
[2H]C([2H])(c1ccccc1)N1CCC[C@@H](N2Cc3cc4c(-c5ccnc(C)c5)n[nH]c4cc3NC2=O)C1 [Example 148]	≤ 250
CC(c1ccccc1)c1cc2cc3c(-c4ccncc4)n[nH]c3cc2[nH]c1=O (stereo not drawn) [Example 326]	≤ 250
Cc1cc(-c2n[nH]c3cc4c(cc23)CN([C@@H]2CN(CC(F)(F)F)C[C@H]2c2ccccc2F)C(=O)N4)ccn1 (racemic) [Example 311]	250 to 1000
Cc1cc(-c2n[nH]c3cc4c(cc23)CN([C@@H]2CCN(CC(F)(F)F)C2)C(=O)N4)cc(C)n1 [Example 237]	≤ 250
